Measured values from US9113629B2, “4-amino-6-(4-substituted-phenyl)-picolinates and 6-amino-2-(4-substituted-phenyl)-pyrimidine-4-carboxylates and their use as herbicides” (DOW AGROSCIENCES LLC, priority 2013, dated 2015).

system: not given; assay: not given; settings: not given

| melting point [°C] | Compound |
| --- | --- |
| 167 to 168 | COC(=O)c1nc(-c2ccc(C)c(F)c2F)c(F)c(N)c1Cl [Compound 211] |

system: Key Grass and Sedge Weeds as well as Grass Crops; assay: Post-emergent Test II herbicidal activity (Table 6); assay type: in vivo; settings: post-emergence, 336 h, CYPES: yellow nutsedge (Cyperus esculentus), 70 g ai/ha, read-out: Visual Growth Reduction (%) 14 Days After Application, CYPES
How it was run: (§1)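 Plants grown in Metro-Mix 360 (pH 6.0–6.8) in a greenhouse (~15 h photoperiod, 23–29 °C day) to first or second true leaf stage, then sprayed with compound in acetone/DMSO/aqueous crop-oil-surfactant carrier at 187 L/ha by track sprayer. Injury visually scored 0–100% versus untreated plants after 14 d.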

| Compound | pest or weed control at 70 g/ha [%] |
| --- | --- |
| COC(=O)c1nc(-c2ccc(C)c(F)c2F)c(F)c(N)c1Cl [Compound 211] | 45 to 59 |

same assay, conditions: post-emergence, 336 h, CYPES: yellow nutsedge (Cyperus esculentus), 140 g ai/ha, read-out: Visual Growth Reduction (%) 14 Days After Application, CYPES

| Compound | pest or weed control at 140 g/ha [%] |
| --- | --- |
| COC(=O)c1nc(-c2ccc(C)c(F)c2F)c(F)c(N)c1Cl [Compound 211] | 60 to 74 |

same assay, conditions: post-emergence, 336 h, DIGSA: crabgrass (Digitaria sanguinalis), 70 g ai/ha, read-out: Visual Growth Reduction (%) 14 Days After Application, DIGSA

| Compound | pest or weed control at 70 g/ha [%] |
| --- | --- |
| COC(=O)c1nc(-c2ccc(C)c(F)c2F)c(F)c(N)c1Cl [Compound 211] | 0 to 29 |

same assay, conditions: post-emergence, 336 h, DIGSA: crabgrass (Digitaria sanguinalis), 140 g ai/ha, read-out: Visual Growth Reduction (%) 14 Days After Application, DIGSA

| Compound | pest or weed control at 140 g/ha [%] |
| --- | --- |
| COC(=O)c1nc(-c2ccc(C)c(F)c2F)c(F)c(N)c1Cl [Compound 211] | 0 to 29 |

same assay, conditions: post-emergence, 336 h, ECHCG: barnyardgrass (Echinochloa crus-galli), 70 g ai/ha, read-out: Visual Growth Reduction (%) 14 Days After Application, ECHCG

| Compound | pest or weed control at 70 g/ha [%] |
| --- | --- |
| COC(=O)c1nc(-c2ccc(C)c(F)c2F)c(F)c(N)c1Cl [Compound 211] | 45 to 59 |

same assay, conditions: post-emergence, 336 h, ECHCG: barnyardgrass (Echinochloa crus-galli), 140 g ai/ha, read-out: Visual Growth Reduction (%) 14 Days After Application, ECHCG

| Compound | pest or weed control at 140 g/ha [%] |
| --- | --- |
| COC(=O)c1nc(-c2ccc(C)c(F)c2F)c(F)c(N)c1Cl [Compound 211] | 85 to 94 |

same assay, conditions: post-emergence, 336 h, ORYSA: rice (Oryza sativa), crop, 70 g ai/ha, read-out: Visual Growth Reduction (%) 14 Days After Application, ORYSA

| Compound | pest or weed control at 70 g/ha [%] |
| --- | --- |
| COC(=O)c1nc(-c2ccc(C)c(F)c2F)c(F)c(N)c1Cl [Compound 211] | 0 to 29 |

same assay, conditions: post-emergence, 336 h, ORYSA: rice (Oryza sativa), crop, 140 g ai/ha, read-out: Visual Growth Reduction (%) 14 Days After Application, ORYSA

| Compound | pest or weed control at 140 g/ha [%] |
| --- | --- |
| COC(=O)c1nc(-c2ccc(C)c(F)c2F)c(F)c(N)c1Cl [Compound 211] | 0 to 29 |

same assay, conditions: post-emergence, 336 h, SETFA: giant foxtail (Setaria faberi), 70 g ai/ha, read-out: Visual Growth Reduction (%) 14 Days After Application, SETFA

| Compound | pest or weed control at 70 g/ha [%] |
| --- | --- |
| COC(=O)c1nc(-c2ccc(C)c(F)c2F)c(F)c(N)c1Cl [Compound 211] | 45 to 59 |

same assay, conditions: post-emergence, 336 h, SETFA: giant foxtail (Setaria faberi), 140 g ai/ha, read-out: Visual Growth Reduction (%) 14 Days After Application, SETFA

| Compound | pest or weed control at 140 g/ha [%] |
| --- | --- |
| COC(=O)c1nc(-c2ccc(C)c(F)c2F)c(F)c(N)c1Cl [Compound 211] | 60 to 74 |

same assay, conditions: post-emergence, 336 h, SORVU: grain sorghum (Sorghum vulgare), 70 g ai/ha, read-out: Visual Growth Reduction (%) 14 Days After Application, SORVU

| Compound | pest or weed control at 70 g/ha [%] |
| --- | --- |
| COC(=O)c1nc(-c2ccc(C)c(F)c2F)c(F)c(N)c1Cl [Compound 211] | 0 to 29 |

same assay, conditions: post-emergence, 336 h, SORVU: grain sorghum (Sorghum vulgare), 140 g ai/ha, read-out: Visual Growth Reduction (%) 14 Days After Application, SORVU

| Compound | pest or weed control at 140 g/ha [%] |
| --- | --- |
| COC(=O)c1nc(-c2ccc(C)c(F)c2F)c(F)c(N)c1Cl [Compound 211] | 30 to 44 |

same assay, conditions: post-emergence, 336 h, TRZSS (wheat, Triticum aestivum), crop, 70 g ai/ha, read-out: Visual Growth Reduction (%) 14 Days After Application, TRZSS

| Compound | pest or weed control at 70 g/ha [%] |
| --- | --- |
| COC(=O)c1nc(-c2ccc(C)c(F)c2F)c(F)c(N)c1Cl [Compound 211] | 0 to 29 |

same assay, conditions: post-emergence, 336 h, TRZSS (wheat, Triticum aestivum), crop, 140 g ai/ha, read-out: Visual Growth Reduction (%) 14 Days After Application, TRZSS

| Compound | pest or weed control at 140 g/ha [%] |
| --- | --- |
| COC(=O)c1nc(-c2ccc(C)c(F)c2F)c(F)c(N)c1Cl [Compound 211] | 0 to 29 |

same assay, conditions: post-emergence, 336 h, ZEAMX: maize, corn (Zea mays), crop, 70 g ai/ha, read-out: Visual Growth Reduction (%) 14 Days After Application, ZEAMX

| Compound | pest or weed control at 70 g/ha [%] |
| --- | --- |
| COC(=O)c1nc(-c2ccc(C)c(F)c2F)c(F)c(N)c1Cl [Compound 211] | 30 to 44 |

same assay, conditions: post-emergence, 336 h, ZEAMX: maize, corn (Zea mays), crop, 140 g ai/ha, read-out: Visual Growth Reduction (%) 14 Days After Application, ZEAMX

| Compound | pest or weed control at 140 g/ha [%] |
| --- | --- |
| COC(=O)c1nc(-c2ccc(C)c(F)c2F)c(F)c(N)c1Cl [Compound 211] | 45 to 59 |

system: Key Broadleaf Weed and Crop Species; assay: Post-emergent Test II herbicidal activity (Table 5); assay type: in vivo; settings: post-emergence, 336 h; ABUTH: velvetleaf (Abutilon theophrasti); application rate 70 g ai/ha; 14 days after application; read-out: Visual Growth Reduction (%) 14 Days After Application, ABUTH
How it was run: as §1

| Compound | pest or weed control at 70 g/ha [%] |
| --- | --- |
| COC(=O)c1nc(-c2ccc(C)c(F)c2F)c(F)c(N)c1Cl [Compound 211] | 95 to 100 |

same assay, conditions: post-emergence, 336 h; ABUTH: velvetleaf (Abutilon theophrasti); application rate 140 g ai/ha; 14 days after application; read-out: Visual Growth Reduction (%) 14 Days After Application, ABUTH

| Compound | pest or weed control at 140 g/ha [%] |
| --- | --- |
| COC(=O)c1nc(-c2ccc(C)c(F)c2F)c(F)c(N)c1Cl [Compound 211] | 95 to 100 |

same assay, conditions: post-emergence, 336 h; AMARE: redroot pigweed (Amaranthus retroflexus); application rate 70 g ai/ha; 14 days after application; read-out: Visual Growth Reduction (%) 14 Days After Application, AMARE

| Compound | pest or weed control at 70 g/ha [%] |
| --- | --- |
| COC(=O)c1nc(-c2ccc(C)c(F)c2F)c(F)c(N)c1Cl [Compound 211] | 95 to 100 |

same assay, conditions: post-emergence, 336 h; AMARE: redroot pigweed (Amaranthus retroflexus); application rate 140 g ai/ha; 14 days after application; read-out: Visual Growth Reduction (%) 14 Days After Application, AMARE

| Compound | pest or weed control at 140 g/ha [%] |
| --- | --- |
| COC(=O)c1nc(-c2ccc(C)c(F)c2F)c(F)c(N)c1Cl [Compound 211] | 95 to 100 |

same assay, conditions: post-emergence, 336 h; BRSNN: oilseed-rape, canola (Brassica napus); application rate 70 g ai/ha; 14 days after application; read-out: Visual Growth Reduction (%) 14 Days After Application, BRSNN

| Compound | pest or weed control at 70 g/ha [%] |
| --- | --- |
| COC(=O)c1nc(-c2ccc(C)c(F)c2F)c(F)c(N)c1Cl [Compound 211] | 60 to 74 |

same assay, conditions: post-emergence, 336 h; BRSNN: oilseed-rape, canola (Brassica napus); application rate 140 g ai/ha; 14 days after application; read-out: Visual Growth Reduction (%) 14 Days After Application, BRSNN

| Compound | pest or weed control at 140 g/ha [%] |
| --- | --- |
| COC(=O)c1nc(-c2ccc(C)c(F)c2F)c(F)c(N)c1Cl [Compound 211] | 85 to 94 |

same assay, conditions: post-emergence, 336 h; CHEAL: lambsquarters (Chenopodium album); application rate 70 g ai/ha; 14 days after application; read-out: Visual Growth Reduction (%) 14 Days After Application, CHEAL

| Compound | pest or weed control at 70 g/ha [%] |
| --- | --- |
| COC(=O)c1nc(-c2ccc(C)c(F)c2F)c(F)c(N)c1Cl [Compound 211] | 95 to 100 |

same assay, conditions: post-emergence, 336 h; CHEAL: lambsquarters (Chenopodium album); application rate 140 g ai/ha; 14 days after application; read-out: Visual Growth Reduction (%) 14 Days After Application, CHEAL

| Compound | pest or weed control at 140 g/ha [%] |
| --- | --- |
| COC(=O)c1nc(-c2ccc(C)c(F)c2F)c(F)c(N)c1Cl [Compound 211] | 95 to 100 |

same assay, conditions: post-emergence, 336 h; EPHHL: wild poinsettia (Euphorbia heterophylla); application rate 70 g ai/ha; 14 days after application; read-out: Visual Growth Reduction (%) 14 Days After Application, EPHHL

| Compound | pest or weed control at 70 g/ha [%] |
| --- | --- |
| COC(=O)c1nc(-c2ccc(C)c(F)c2F)c(F)c(N)c1Cl [Compound 211] | 95 to 100 |

same assay, conditions: post-emergence, 336 h; EPHHL: wild poinsettia (Euphorbia heterophylla); application rate 140 g ai/ha; 14 days after application; read-out: Visual Growth Reduction (%) 14 Days After Application, EPHHL

| Compound | pest or weed control at 140 g/ha [%] |
| --- | --- |
| COC(=O)c1nc(-c2ccc(C)c(F)c2F)c(F)c(N)c1Cl [Compound 211] | 95 to 100 |

same assay, conditions: post-emergence, 336 h; HELAN: sunflower (Helianthus annuus); application rate 70 g ai/ha; 14 days after application; read-out: Visual Growth Reduction (%) 14 Days After Application, HELAN

| Compound | pest or weed control at 70 g/ha [%] |
| --- | --- |
| COC(=O)c1nc(-c2ccc(C)c(F)c2F)c(F)c(N)c1Cl [Compound 211] | 95 to 100 |

same assay, conditions: post-emergence, 336 h; HELAN: sunflower (Helianthus annuus); application rate 140 g ai/ha; 14 days after application; read-out: Visual Growth Reduction (%) 14 Days After Application, HELAN

| Compound | pest or weed control at 140 g/ha [%] |
| --- | --- |
| COC(=O)c1nc(-c2ccc(C)c(F)c2F)c(F)c(N)c1Cl [Compound 211] | 95 to 100 |

same assay, conditions: post-emergence, 336 h; VIOTR: wild pansy (Viola tricolor); application rate 70 g ai/ha; 14 days after application; read-out: Visual Growth Reduction (%) 14 Days After Application, VIOTR

| Compound | pest or weed control at 70 g/ha [%] |
| --- | --- |
| COC(=O)c1nc(-c2ccc(C)c(F)c2F)c(F)c(N)c1Cl [Compound 211] | 0 to 29 |

same assay, conditions: post-emergence, 336 h; VIOTR: wild pansy (Viola tricolor); application rate 140 g ai/ha; 14 days after application; read-out: Visual Growth Reduction (%) 14 Days After Application, VIOTR

| Compound | pest or weed control at 140 g/ha [%] |
| --- | --- |
| COC(=O)c1nc(-c2ccc(C)c(F)c2F)c(F)c(N)c1Cl [Compound 211] | 0 to 29 |
